From the supplement of paper PMC5579334
± gives the standard deviation of the averaged measurements.

Assays:
S1507-2 [1] = assay: drug sensitivity score (DSS, CellTox-Green cytotoxicity, 72 h) (DSS (dimensionless)); higher = more cytotoxic; extreme values may be limits of the assay
Method in brief: (§1)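 For 72 h at 37 °C, MPNST cell lines and primary human Schwann cells were exposed in 384-well plates to five 10-fold compound dilutions. CellTox-Green, added before seeding at a final 1:1000 dilution, gave fluorescence from DNA released by disrupted cells. Signals were scaled to vehicle and positive-control wells, cultures failing plate quality control were left out, and four-parameter logistic fits were applied. Relative IC50 and drug sensitivity score were derived from the fits, with IC50 censored at the top concentration.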

ST8814 [2] = assay: as above
Method in brief: as §1

STS26T [3] = assay: as above
Method in brief: as §1

[4] = test system: HSC1 (primary human Schwann cells); assay: as above
Method in brief: as §1

[5] = test system: HSC2 (primary human Schwann cells); assay: as above
Method in brief: as §1

HS-PSS [6] = assay: as above
Method in brief: as §1

S1507-2 [7] = assay: % inhibition of CellTiter-Glo viability at highest tested concentration (72 h), relative to DMSO and benzethonium chloride controls; higher = more inhibition
Method in brief: (§2)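 MPNST cell lines and primary human Schwann cells were seeded at 750–1000 cells per well into 384-well plates preprinted with each compound at five concentrations in 10-fold steps, then incubated 72 h at 37 °C, 5% CO2. CellTiter-Glo ATP luminescence gave viability, scaled between vehicle and positive-control wells, with duplicates averaged where present. Curves were fitted with a four-parameter logistic model. Percent inhibition refers to the top concentration, while drug sensitivity score and relative IC50, censored at the top concentration, come from these fits.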

ST8814 [8] = assay: as above
Method in brief: as §2

YST-1 [9] = assay: as above
Method in brief: as §2

S462 [10] = assay: as above
Method in brief: as §2

STS26T [11] = assay: as above
Method in brief: as §2

HS-Sch-2 [12] = assay: as above
Method in brief: as §2

[13] = test system: HSC1 (primary human Schwann cells); assay: as above
Method in brief: as §2

[14] = test system: HSC2 (primary human Schwann cells); assay: as above
Method in brief: as §2

HS-PSS [15] = assay: as above
Method in brief: as §2

S1507-2 [16] = assay: drug sensitivity score (DSS, CellTiter-Glo viability, 72 h) (DSS (dimensionless)); higher = more sensitive; extreme values may be limits of the assay
Method in brief: as §2

ST8814 [17] = assay: as above
Method in brief: as §2

YST-1 [18] = assay: as above
Method in brief: as §2

S462 [19] = assay: as above
Method in brief: as §2

STS26T [20] = assay: as above
Method in brief: as §2

HS-Sch-2 [21] = assay: as above
Method in brief: as §2

[22] = test system: HSC1 (primary human Schwann cells); assay: as above
Method in brief: as §2

[23] = test system: HSC2 (primary human Schwann cells); assay: as above
Method in brief: as §2

HS-PSS [24] = assay: as above
Method in brief: as §2

Structure (SMILES) | drug sensitivity score (S1507-2 [1]) | drug sensitivity score (ST8814 [2]) | drug sensitivity score (STS26T [3]) | drug sensitivity score [4] | drug sensitivity score [5] | drug sensitivity score (HS-PSS [6]) | % inhibition (S1507-2 [7]) | % inhibition (ST8814 [8]) | % inhibition (YST-1 [9]) | % inhibition (S462 [10]) | % inhibition (STS26T [11]) | % inhibition (HS-Sch-2 [12]) | % inhibition [13] | % inhibition [14] | % inhibition (HS-PSS [15]) | drug sensitivity score (S1507-2 [16]) | drug sensitivity score (ST8814 [17]) | drug sensitivity score (YST-1 [18]) | drug sensitivity score (S462 [19]) | drug sensitivity score (STS26T [20]) | drug sensitivity score (HS-Sch-2 [21]) | drug sensitivity score [22] | drug sensitivity score [23] | drug sensitivity score (HS-PSS [24])
C/C(=C\c1csc(C)n1)[C@@H]1C[C@@H]2O[C@]2(C)CCC[C@H](C)[C@H](O)[C@@H](C)C(=O)C(C)(C)[C@@H](O)CC(=O)O1 [Patupilone] (max concentration tested 1000 nM) | 21.9 ± 2.8 | 23.9 | 36.6 | 11.5 | 18.8 | 0 | 80.9 ± 0.77% | 84.4% | 78.1% | 92.6 ± 0.95% | 96.8% | 91.9% | 70% | 73% | 42.2% | 24.4 ± 1.7 | 28.4 | 31 | 37.7 ± 0.67 | 36.5 | 32.7 | 29.1 | 25.2 | 17.9
O=C(Nc1ccc2[nH]nc(-c3ccncc3)c2c1)[C@@H]1CCN(CC(=O)N2CCN(c3ccc(-c4ncccn4)cc3)CC2)C1 (max concentration tested 10000 nM) | 9.36 ± 3.5 | 10.8 | 1.59 | 0 | 0.0074 | 0 | 77.5 ± 2.5% | 91.2% | 31.8% | 97 ± 2.1% | 40.4% | 66.4% | 61.3% | 51.2% | 45.2% | 10.7 ± 1.2 | 16.7 | 1.98 | 20.4 ± 0.4 | 4.44 | 8.78 | 10.4 | 10.6 | 5.75
COc1ccc(-c2ccc3c(N4CCOC[C@@H]4C)nc(N4CCOC[C@@H]4C)nc3n2)cc1CO [AZD8055] (max concentration tested 10000 nM) | 0 | 0.371 | 0 | 0 | 0 | 0.77 | 85.4 ± 0.61% | 84.1% | 78.6% | 74.8 ± 1.4% | 82% | 75.8% | 89.3% | 89.9% | 70.7% | 22.5 ± 1.3 | 18 | 25.1 | 22.3 ± 1.8 | 21 | 17.9 | 26.2 | 27.2 | 17
O=c1[nH]c(=O)n([C@H]2C[C@H](O)[C@@H](CO)O2)cc1F [Floxuridine] (max concentration tested 10000 nM) | 0 | 2.95 | 7.21 | 1.27 | 0.287 | 0 | 31.3 ± 10% | 57.8% | 68.3% | 84.1 ± 3.6% | 77.3% | 84.7% | 53.1% | 53.8% | 30.7% | 5.09 ± 3.2 | 12.5 | 14.7 | 22.4 ± 2.9 | 21.5 | 17.9 | 6.07 | 10.6 | 2.58
CC(C)(C)c1cnc(CSc2cnc(NC(=O)C3CCNCC3)s2)o1 [SNS-032] (max concentration tested 10000 nM) | 0 | 14.4 | 23.2 | 12.8 | 14.3 | 1.68 | 80.6 ± 3.5% | 87.2% | 99.9% | 104 ± 0.55% | 97.5% | 98.6% | 79.4% | 86.5% | 70.5% | 18.6 ± 1.5 | 24.5 | 29.4 | 36.8 ± 1.5 | 31.5 | 27.9 | 36.9 | 38 | 25.9
CO[C@H]1C[C@@H]2CC[C@@H](C)[C@@](O)(O2)C(=O)C(=O)N2CCCC[C@H]2C(=O)O[C@H]([C@H](C)C[C@@H]2CC[C@@H](OCCO)[C@H](OC)C2)CC(=O)[C@H](C)/C=C(\C)[C@@H](O)[C@@H](OC)C(=O)[C@H](C)C[C@H](C)/C=C/C=C/C=C/1C [Everolimus] (max concentration tested 100 nM) | 6.46 ± 9.1 | 0 | 0 | 0 | 0 | 0 | 31 ± 1.7% | 28.3% | 38.7% | 29.4 ± 7.3% | 45.4% | 18.4% | 44.5% | 48.5% | 23.8% | 6.7 ± 1.1 | 7.31 | 4.45 | 8.44 ± 0.54 | 15.6 | 3.17 | 17.2 | 15.8 | 3.56
C[C@@H](C(=O)O)c1ccc(-c2ccccc2)c(F)c1 [Tarenflurbil] (max concentration tested 10000 nM) | 0.283 ± 0.4 | 0 | 0 | 0 | 0 | 0 | -1.93 ± 0.15% | -0.223% | -2.65% | -5.38 ± 11% | -0.273% | -4.22% | 1.66% | -6.06% | -1.84% | 0 | 0 | 0 | 0 | 0 | 0 | 0 | 0 | 0
Oc1ccc2c(c1)CC[C@H](c1ccccc1)[C@@H]2c1ccc(OCCN2CCCC2)cc1 [Lasofoxifene] (max concentration tested 1000 nM) | 0 | 0 | 0 | 0 | 0 | 0 | 6.44 ± 1.6% | -2.62% | -1.77% | 10.5 ± 10% | 4.5% | 8.81% | 17.1% | 9.44% | 21.2% | 0 | 0 | 0 | 0.222 ± 0.31 | 0 | 0 | 0 | 0 | 1.43
COc1ccc(C2=N[C@@H](c3ccc(Cl)cc3)[C@@H](c3ccc(Cl)cc3)N2C(=O)N2CCNC(=O)C2)c(OC(C)C)c1 [Nutlin-3] (max concentration tested 10000 nM) | 1.97 ± 2.8 | 0.0128 | 0 | 0 | 0 | 0 | 7.98 ± 12% | 59.7% | 94.8% | 5.05 ± 4.8% | 12.2% | 1.38% | 62.4% | 71.8% | 24.9% | 0.283 ± 0.4 | 4.66 | 9.36 | 0 | 0.0084 | 0 | 5.97 | 7.69 | 1.69
C=C1C[C@@H]2[C@H](CC[C@]3(C)C(=O)CC[C@@H]23)[C@@]2(C)C=CC(=O)C=C12 [Exemestane] (max concentration tested 10000 nM) | 0 | 0 | 0 | 0 | 0 | 0 | 12 ± 1.6% | 5.32% | -11.7% | 22.1 ± 2% | 9.39% | 22.9% | 3.19% | 6.18% | 26.7% | 0.225 ± 0.26 | 0 | 0 | 0.804 ± 0.28 | 0 | 0.78 | 0 | 0 | 1.87
CCS(=O)(=O)c1cccc(-c2cc(C(=O)NC3CCN(C)CC3)c(C)c3[nH]c4ncc(C)cc4c23)c1 [TAK-901] (max concentration tested 1000 nM) | 0 | 5.81 | 6.2 | 0.0275 | 11 | 0 | 23.5 ± 3.2% | 57.6% | 76.6% | 80.6 ± 2.5% | 69.6% | 70.3% | 63.8% | 65.6% | 57.5% | 1.99 ± 0.39 | 3.64 | 10.1 | 8.66 ± 0.25 | 7.82 | 3.76 | 7.19 | 8.24 | 5.46
CC/C(=C(\c1ccc(O)cc1)c1ccc(OCCN(C)C)cc1)c1ccccc1 [4-hydroxytamoxifen] (max concentration tested 10000 nM) | 0.592 ± 0.84 | 4.88 | 1.86 | 1.81 | 7.53 | 3.7 | 55.9 ± 8.7% | 75.7% | 32.7% | 46.1 ± 9.7% | 53% | 93.4% | 72.5% | 82.5% | 88.4% | 5.41 ± 1.5 | 5.33 | 2.94 | 3.82 ± 1.3 | 3.45 | 7.34 | 5.78 | 5.65 | 6.38
CC(C)N(CCCNC(=O)Nc1ccc(C(C)(C)C)cc1)C[C@H]1O[C@@H](n2cc(Br)c3c(N)ncnc32)[C@H](O)[C@@H]1O [SGC0946] (max concentration tested 10000 nM) | 0.24 ± 0.046 | 3.21 | 0 | 0 | 0 | 2.32 | 42.7 ± 1.2% | 52.9% | 29% | 19.2 ± 8.9% | 4.04% | 67.2% | 23.1% | 16.3% | 79.5% | 3.16 ± 1.4 | 2.58 | 1.03 | 0.582 ± 0.82 | 0 | 3.88 | 0.65 | 0.163 | 6.51
